{
  "source": "paper PMC6493972",
  "about": "“Synthesis and Biological Evaluation of (E)-4-Hydroxy-3-methylbut-2-enyl Phosphate (HMBP) Aryloxy Triester Phosphoramidate Prodrugs as Activators of Vγ9/Vδ2 T-Cell Immune Responses” (Journal of Medicinal Chemistry, 2018)",
  "key": {"Vγ9/Vδ2 T-cells": {"test_system": "Vγ9/Vδ2 T-cells", "assay": "Activation of Vγ9/Vδ2 T-cells in PBMC (upregulation of CD69 and CD25)", "format": "cell-based", "conditions": "human PBMC from healthy donors, 18 h, n = 4-5 donors, Figure 2d and text"}, "[1]": {"molecular_target": "T1, carboxypeptidase cathepsin A (Homo sapiens, UniProt P10619)", "T1 sequence (P10619 29-480)": "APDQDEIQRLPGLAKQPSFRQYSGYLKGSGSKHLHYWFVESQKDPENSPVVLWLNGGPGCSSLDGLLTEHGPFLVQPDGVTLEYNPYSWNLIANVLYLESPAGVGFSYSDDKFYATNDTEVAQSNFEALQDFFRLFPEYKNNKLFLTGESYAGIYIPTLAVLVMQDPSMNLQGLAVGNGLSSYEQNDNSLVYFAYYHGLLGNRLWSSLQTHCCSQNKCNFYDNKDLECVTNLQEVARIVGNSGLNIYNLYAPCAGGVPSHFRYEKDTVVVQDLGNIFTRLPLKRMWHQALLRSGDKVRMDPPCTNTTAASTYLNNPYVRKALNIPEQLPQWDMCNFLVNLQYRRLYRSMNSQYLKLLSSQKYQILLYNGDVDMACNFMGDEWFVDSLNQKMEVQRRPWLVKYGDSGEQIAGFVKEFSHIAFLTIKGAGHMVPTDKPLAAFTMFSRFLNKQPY", "assay": "In vitro cathepsin A mediated degradation monitored by 31P NMR and mass spectroscopy", "format": "in vitro ADME", "conditions": "after 72 h", "experimental": "In order to get an insight into the metabolism of ProPAgens 6a–d, compound 6d was incubated with the carboxypeptidase cathepsin A in vitro and the reaction was monitored with ^31P NMR. […] This may explain literature reports pursuing the phosphonates of HMBP where the −O-P- bond was replaced by a −CH2-P- one and lack of reports on the native HMBP phosphate prodrugs.[19]"}, "PBMC": {"test_system": "PBMC", "assay": "Specific cell death in PBMC cultures (ED50, viability dye)", "format": "cell-based, human", "conditions": "supplementary CSV", "experimental": "Figure 2 Activation of human Vγ9/Vδ2^+ T cells by HMBP ProPAgens. (a) Human peripheral blood mononuclear cells (PBMC) were incubated with media or indicated concentrations of HMB-PP or zoledronate for 18 h. TCR Vγ9/Vδ2^+ T cells were then assessed for the upregulation of cell surface markers, CD69 and CD25. Data representative of n = 5. (b) As in (a), with PBMC incubated with indicated concentrations of HMBP ProPAgens. Data representative of n = 4. (c) As in (a) and (b), with data showing titrations of each of HMB-PP, zoledronate, and HMBP ProPAgens, alongside a medium control (M). Data from n = 4–5 donors. (d) EC50, ED50, and selectivity index (SI) values for each HMBP ProPAgens. Specific cell death, for ED50 values, was calculated after adjusting for nonspecific cell death in medium controls. (e) CD69 and CD25 activation in CD3^+ CD8^+ αβ T-cells for each compound.\nI. T-cell isolation, culture and activation\nPBMCs were isolated from heparinised venous blood from consented healthy donors (approved by the NRES Committee West Midlands ethical board; REC reference 14/WM/1254). Blood was layered over lymphoprep© (Stem Cell Technologies) and PBMC isolated according to manufacturers instructions. The cell culture medium used throughout was RPMI-1640 media supplemented with 2 mM L-glutamine, 25 mM HEPES, 1% sodium pyruvate, 50 μg/ml penicillin/streptomycin (Invitrogen) and 10% fetal calf serum (Sigma). For activation assays, 5 x 10^5 PBMC were cultured for 20 h in the presence of medium alone or the indicated concentrations of HMB-PP (Sigma), Zoledronate (Sigma), 5a, 5b, 5c and 5d (as described above). Cultured PBMC were labelled with Zombie© aqua viability dye (Biolegend) and cells were stained for surface antigens by antibodies directed against CD3 (UCHT1; […]\n(§1) (IMMU360; 1:400); Beckman Coulter, and TCR Vδ2 (123R3; 1:200); Miltenyi. […] All cells were then labelled with Zombie© aqua viability dye and CFSE+ Zombie© aqua+ cells measured. All data were acquired on an LSR II (Beckton Dickinson) and data analysed with FlowJo V10.1 (TreeStar). Tabulated data were analysed in Graphpad PRISM 7"}, "[2]": {"test_system": "T24 urinary bladder carcinoma cell line", "assay": "Specific lysis of pulsed T24 bladder carcinoma cells by expanded Vγ9/Vδ2 T cells", "format": "cell-based, human", "conditions": "T24 pulsed 4 h with 10 nM ProPAgens or 10 μM zoledronate, cocultured 18 h with expanded Vγ9/Vδ2 T cells", "experimental": "Next, we tested the potential for ProPAgens to sensitize the urinary bladder carcinoma cell line T24 for targeted killing by in vitro expanded Vγ9/Vδ2 T cells. Without sensitization, medium pulsed T24 cells were poorly targeted by increasing ratios of Vγ9/Vδ2 T cells, but upon pulsing for 4 h with zoledronate or ProPAgens 5a–d, T24 cells were specifically lysed (Figure 3a). […] In contrast, a 1000-fold lower concentration of each ProPAgen mediated a 2- to 4-fold increase in specific lysis of T24 over the same period (Figure 3b).\nFigure 3 HMBP ProPAgens mediate the specific lysis of bladder cancer cells by Vγ9/Vδ2 T-cells. […] Specific killing of target cells was measured by amine-reactive dead cell marker staining. […] (b) As in (a) showing the mean ± SD specific killing of T24 cells at 1:10 target/effector ratio for each indicated treatment, n = 2: (∗) P < 0.05; (∗∗) P < 0.01; determined by one-way ANOVA. […]\nas §1"}},
  "data": [
    {"smiles": "COC(=O)[C@H](C)NP(=O)(OC/C=C(\\C)CO[Si](C)(C)C(C)(C)C)Oc1ccccc1", "note": "(stereo partly drawn) [5a, Methyl ((((E)-4-((tert-Butyldimethylsilyl)oxy)-3-methylbut-2-en-1-yl)oxy)(phenoxy)phosphoryl)-L-alaninate]", "values": [
      {"measurement": "EC50, activation of Vγ9/Vδ2 T-cells", "setting": "Vγ9/Vδ2 T-cells", "result": "low nanomolar activation"}
    ]},
    {"smiles": "C/C(=C\\COP(=O)(N[C@@H](C)C(=O)OC(C)(C)C)Oc1ccccc1)CO", "note": "(stereo partly drawn) [6d, tert-Butyl ((((E)-4-Hydroxy-3-methylbut-2-en-1-yl)oxy)(phenoxy)phosphoryl)-L-alaninate]", "values": [
      {"measurement": "degradation product (major metabolite) after incubation with cathepsin A", "setting": "[1]", "result": "phosphate group masked with the aryl motif and the amino acid ester moiety"}
    ]},
    {"smiles": "C/C(=C\\COP(=O)(N[C@@H](C)C(=O)OC(C)(C)C)Oc1ccccc1)CO[Si](C)(C)C(C)(C)C", "note": "(stereo partly drawn) [5d, tert-Butyl ((((E)-4-((tert-Butyldimethylsilyl)oxy)-3-methylbut-2-en-1-yl)oxy)(phenoxy)phosphoryl)-L-alaninate]", "values": [
      {"measurement": "EC50, activation of Vγ9/Vδ2 T-cells", "setting": "Vγ9/Vδ2 T-cells", "result": "low nanomolar activation"},
      {"measurement": "ED50", "setting": "PBMC", "result": ">100", "unit": "µM"}
    ]},
    {"smiles": "C/C(=C\\COP(=O)(N[C@@H](C)C(=O)OC(C)C)Oc1ccccc1)CO[Si](C)(C)C(C)(C)C", "note": "(stereo partly drawn) [5c, Isopropyl ((((E)-4-((tert-Butyldimethylsilyl)oxy)-3-methylbut-2-en-1-yl)oxy)(phenoxy)phosphoryl)-L-alaninate]", "values": [
      {"measurement": "EC50, activation of Vγ9/Vδ2 T-cells", "setting": "Vγ9/Vδ2 T-cells", "result": "low nanomolar activation"}
    ]},
    {"smiles": "O.O=P(O)(O)C(O)(Cn1ccnc1)P(=O)(O)O", "note": "[Zoledronate]", "values": [
      {"measurement": "specific lysis/killing of T24 cells by Vγ9/Vδ2 T cells (in words)", "setting": "[2]", "result": "only a marginal increase"},
      {"measurement": "ED50", "setting": "PBMC", "result": ">100", "unit": "µM"}
    ]},
    {"smiles": "C/C(=C\\COP(=O)(O)OP(=O)(O)O)CO", "note": "[HMBPP, (E)-4-hydroxy-3-methyl-but-2-enyl pyrophosphate]", "values": [
      {"measurement": "ED50", "setting": "PBMC", "result": ">100", "unit": "µM"}
    ]}
  ]
}
